ChEMBL document CHEMBL1201862, “PubChem BioAssay data set” (2004)
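Five compound concentrations were applied to cells in 96-well plates for 48 hours; endpoints were derived by simple linear interpolation of the resulting dose-response curve. At the GI50, growth is halved.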 Active and inactive are the calls of the source. Cut-off read from the data, not from the text of the source: active = GI50 up to about 1.1 µM and inactive = higher.

Columns and labels:
Experiment in all cases: DTP human tumour cell line panel, 48 h
[1] = tested on: SK-MEL-28
[2] = tested on: HCC 2998
[3] = tested on: SK-OV-3
[4] = tested on: U-251
[5] = tested on: EKVX
[6] = tested on: SF-268
[7] = tested on: OVCAR-8
[8] = tested on: HT-29
[9] = tested on: NCI-H23
[10] = tested on: HOP-62
[11] = tested on: NCI-H522
[12] = tested on: MCF7
[13] = tested on: ACHN
[14] = tested on: Malme-3M
[15] = tested on: HCT-15
[16] = tested on: SN12C
[17] = tested on: RXF 393
[18] = tested on: Hs-578T
[19] = tested on: PC-3

SMILES | GI50 [1] | GI50 [2] | GI50 [3] | GI50 [4] | GI50 [5] | GI50 [6] | GI50 [7] | GI50 [8] | GI50 [9] | GI50 [10] | GI50 [11] | GI50 [12] | GI50 [13] | GI50 [14] | GI50 [15] | GI50 [16] | GI50 [17] | GI50 [18] | GI50 [19]
O=C(c1ccco1)N(C(=S)OCCOc1ccccc1)c1ccccc1 | 18.2 µM (inactive) | 21 µM (inactive) | 21.8 µM (inactive) | 16.5 µM (inactive) | 22.1 µM (inactive) | 18 µM (inactive) | 19.8 µM (inactive) | 19.2 µM (inactive) | 21.3 µM (inactive) | 16.2 µM (inactive) | 17.1 µM (inactive) | 20.7 µM (inactive) | 23 µM (inactive) | 19.9 µM (inactive) | 22.3 µM | 19.5 µM (inactive) | 13.8 µM (inactive) | 32.1 µM (inactive) | 24.1 µM (inactive)
Nc1nc(Cl)cc(NCC2(CO)COC2)n1 | > 100 µM (inactive) | > 100 µM (inactive) | > 100 µM (inactive) | > 100 µM (inactive) | > 100 µM (inactive) | > 100 µM (inactive) | > 100 µM (inactive) | > 100 µM (inactive) | > 100 µM (inactive) | > 100 µM (inactive) | > 100 µM (inactive) | > 100 µM (inactive) | > 100 µM (inactive) | > 100 µM (inactive) | > 100 µM | > 100 µM (inactive) | > 100 µM (inactive) | > 100 µM (inactive) | > 100 µM (inactive)
CN(C)c1ccc(C(=N/N=C2\C(=O)Nc3ccccc32)c2ccc(N(C)C)cc2)cc1 | 3.17 µM (inactive) | 0.643 µM (active) | 1.37 µM (inactive) | 0.49 µM (active) | 5.15 µM (inactive) | 0.942 µM (active) | 1 µM (active) | 0.348 µM (active) | 1.73 µM (inactive) | 0.933 µM (active) | 0.167 µM (active) | 0.266 µM (active) | 1.04 µM (active) | 2.17 µM (inactive) | 0.188 µM | 1.67 µM (inactive) | 0.172 µM (active) | 0.836 µM (active) | 1.58 µM (inactive)
CC(O)C1(CNc2cc(Cl)nc(N)n2)CCCC1 (stereo unspecified) | > 100 µM (inactive) | 23.4 µM (inactive) | > 100 µM (inactive) | > 100 µM (inactive) | > 100 µM (inactive) | > 100 µM (inactive) | > 100 µM (inactive) | > 100 µM (inactive) | 90.4 µM (inactive) | > 100 µM (inactive) | > 100 µM (inactive) | > 100 µM (inactive) | > 100 µM (inactive) | > 100 µM (inactive) | > 100 µM | > 100 µM (inactive) | > 100 µM (inactive) | > 100 µM (inactive) | > 100 µM (inactive)
O=C1c2ccccc2CC12Cc1cc3c(cc1C2=O)CCC3 (stereo unspecified) | > 100 µM (inactive) | > 100 µM (inactive) | > 100 µM (inactive) | > 100 µM (inactive) | > 100 µM (inactive) | > 100 µM (inactive) | > 100 µM (inactive) | > 100 µM (inactive) | > 100 µM (inactive) | > 100 µM (inactive) | > 100 µM (inactive) | > 100 µM (inactive) | > 100 µM (inactive) | > 100 µM (inactive) | > 100 µM |  | > 100 µM (inactive) | > 100 µM (inactive) | > 100 µM (inactive)
CN(C)c1ccc(/C=C(\NC(=O)c2ccccc2)C(=O)Nc2ccccc2C(=O)NCc2ccccc2)cc1 | > 100 µM (inactive) | > 100 µM (inactive) | > 100 µM (inactive) | 46.8 µM (inactive) | > 100 µM (inactive) | > 100 µM (inactive) | 59.4 µM (inactive) | > 100 µM (inactive) | > 100 µM (inactive) | 31.4 µM (inactive) | 27.6 µM (inactive) | > 100 µM (inactive) | > 100 µM (inactive) | > 100 µM (inactive) | > 100 µM | > 100 µM (inactive) | > 100 µM (inactive) | > 100 µM (inactive) | > 100 µM (inactive)
C/C=C(/C)C(=O)O[C@H]1C(C)=C[C@]23C(=O)[C@@H](C=C(COC(C)=O)[C@@H](O)[C@]12O)[C@H]1[C@@H](C[C@H]3C)[C@@]1(C)OC(=O)/C(C)=C\C | 3.69 µM (inactive) | 1.49 µM (inactive) | 4.19 µM (inactive) | 2.45 µM (inactive) | 2.9 µM (inactive) | 0.655 µM (active) | 3.72 µM (inactive) | 0.411 µM (active) | 2.42 µM (inactive) | 2.37 µM (inactive) | 1.8 µM (inactive) | 2.35 µM (inactive) | 0.546 µM (active) | 0.111 µM (active) | 2.96 µM | 1.69 µM (inactive) | 2.65 µM (inactive) | 0.0792 µM (active) | 1.4 µM (inactive)
Cc1nc2c(o1)C(=O)c1ccccc1/C2=N/c1ccc(N2CCOCC2)cc1 | 3.15 µM (inactive) | 34.1 µM (inactive) | 37.8 µM (inactive) | 3.52 µM (inactive) | 7.73 µM (inactive) | 4.48 µM (inactive) | 2.81 µM (inactive) | 24.8 µM (inactive) | 2.39 µM (inactive) | 8.85 µM (inactive) | 2.48 µM (inactive) | 2.77 µM (inactive) | 3.61 µM (inactive) | 1.74 µM (inactive) | 3.66 µM | 3.18 µM (inactive) | 0.421 µM (active) | 3.22 µM (inactive) | 2.08 µM (inactive)
Cc1[nH]n(C(=N)N)c(=O)c1CCO | > 100 µM (inactive) | > 100 µM (inactive) | > 100 µM (inactive) | > 100 µM (inactive) |  | > 100 µM (inactive) | 1.68 µM (inactive) | > 100 µM (inactive) | > 100 µM (inactive) | > 100 µM (inactive) | > 100 µM (inactive) | > 100 µM (inactive) | > 100 µM (inactive) | > 100 µM (inactive) | > 100 µM | > 100 µM (inactive) | > 100 µM (inactive) | > 100 µM (inactive) | > 100 µM (inactive)
Brc1cccc[n+]1-c1ccc2cc(-[n+]3ccccc3Br)ccc2c1 | > 100 µM (inactive) | 46.1 µM (inactive) | 3.01 µM (inactive) | 15.6 µM (inactive) | 47.6 µM (inactive) | 31.8 µM (inactive) | 43 µM (inactive) | 29.1 µM (inactive) | > 100 µM (inactive) | 27.6 µM (inactive) | 40.1 µM (inactive) | 35.7 µM (inactive) | 17.7 µM (inactive) | 23.1 µM (inactive) | 32.5 µM | 42.4 µM (inactive) | 32 µM (inactive) | 56.9 µM (inactive) | > 100 µM (inactive)
Cc1[nH]c(/C=C2\C(=O)Nc3ccccc32)c(C)c1CCC(=O)O [ORANTINIB] | 31.1 µM (inactive) | 35.6 µM (inactive) | 30.1 µM (inactive) | 59.4 µM (inactive) | 28.5 µM (inactive) | 34.4 µM (inactive) | 40.7 µM (inactive) |  | 27.7 µM (inactive) | 29.4 µM (inactive) | 34.1 µM (inactive) | 28.1 µM (inactive) | 30.5 µM (inactive) | 21.2 µM (inactive) | 31.4 µM | 31 µM (inactive) | 29.1 µM (inactive) | 37.9 µM (inactive) | 35.7 µM (inactive)
